One experiment relates to TMD8. As to the kind of experiment: CCK-8 tumor cell proliferation, TMD8. The format is cell-based. The note with it: Homo sapiens, TMD8, 72 h, read-out: IC50 for inhibiting the proliferation of tumor cells, TMD8. Here is the method: (§1) Determination of half inhibitory concentration (IC50) of the compounds against tumor cells:
(§2) The tumor cells used herein were cultured in a cell culture medium listed in table 6 at 37° C. in an incubator with 5% CO2.
(§3) After the cells were treated with the compounds of the present disclosure for a period of time (the treatment times listed in Table 7), the cell viability detection reagent was added to the culture medium for cell viability assessment according to the instructions provided with the CCK-8 kit. […] The growth inhibition of the compounds of the present disclosure on cells was plotted by Prism Graphpad software, and the IC50 values of the compounds of the present disclosure were calculated therefrom.

The test system of the next experiment is Kasumi-1. As to the kind of experiment: CCK-8 tumor cell proliferation, Kasumi-1. It counts as cell-based. The note with it: Homo sapiens, Kasumi-1, 72 h, read-out: IC50 for inhibiting the proliferation of tumor cells, Kasumi-1. Here is the method: as §1, §2, §3
For a further experiment, the system named is Daudi. As to the kind of experiment: CCK-8 tumor cell proliferation, Daudi. The format is cell-based. To be noted: Homo sapiens, 96 h, read-out: IC50 for inhibiting the proliferation of tumor cells, Daudi. Here is the method:
as §1, §2, §3

Another experiment relates to SU-DHL-6. Description: CCK-8 tumor cell proliferation, SU-DHL-6. It counts as cell-based. The note with it: Homo sapiens, SU-DHL-6, 72 h, read-out: IC50 for inhibiting the proliferation of tumor cells, SU-DHL-6. Here is the method:
as §1, §2, §3

The subject of another experiment is DU-145. As to the kind of experiment: CCK-8 tumor cell proliferation, DU-145. The note with it: DU-145, 96 h, read-out: IC50 for inhibiting the proliferation of tumor cells, DU-145. The format is cell-based, Human. The essentials: (§4)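 Cells grown at 37° C with 5% CO2, treated with compound for line-specific times, then viability read with CCK-8. IC50 derived from plotted growth inhibition curves.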

The subject of the next experiment is Hep3B2.1-7. As to the kind of experiment: CCK-8 tumor cell proliferation, Hep3B2.1-7. It counts as cell-based, Human. To be noted: Hep3B2.1-7, 96 h, read-out: IC50 for inhibiting the proliferation of tumor cells, Hep3B2.1-7. The procedure, abridged: (§5)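 Cells were seeded in 96-well plates and treated 24 h later with compounds at 10 concentrations, top 10 μM, 5-fold serial dilutions. Viability after the set treatment time was read with a CCK-8 kit, and IC50 was calculated from growth-inhibition curves.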

A further experiment relates to MGC80-3. As to the kind of experiment: CCK-8 tumor cell proliferation, MGC80-3. It counts as cell-based, Human. The note with it: MGC80-3, 96 h, read-out: IC50 for inhibiting the proliferation of tumor cells, MGC80-3. The essentials: as §5
The subject of a further experiment is LNcap. As to the kind of experiment: CCK-8 tumor cell proliferation, LNcap. The format is cell-based, Human. The note with it: 96 h, read-out: IC50 for inhibiting the proliferation of tumor cells, LNcap. The procedure, abridged:
as §5

For a further experiment, the system named is WSU-DLCL2. Description: CCK-8 tumor cell proliferation, WSU-DLCL2. It counts as cell-based, Human. The note with it: WSU-DLCL2, 96 h, read-out: IC50 for inhibiting the proliferation of tumor cells, WSU-DLCL2. The procedure, abridged: as §4
In another experiment the test system is SW620. Description: CCK-8 tumor cell proliferation, SW620. The format is cell-based, Human. To be noted: SW620, 96 h, CCK-8, Table 8 (AR-based); read-out: IC50 for inhibiting the proliferation of tumor cells, SW620. Here is the method:
as §1, §2, §3

In another experiment the test system is MM.1R. As to the kind of experiment: CCK-8 tumor cell proliferation, MM.1R. To be noted: 72 h, read-out: IC50 for inhibiting the proliferation of tumor cells, MM.1R. The format is cell-based. Here is the method:
as §1, §2, §3

Another experiment deals with A549. As to the kind of experiment: CCK-8 tumor cell proliferation, A549. The format is cell-based, Human. The note with it: A549, 96 h, read-out: IC50 for inhibiting the proliferation of tumor cells, A549. Here is the method: as §1
The tumor cells used herein were cultured in a cell culture medium listed in table 6 at 37° C. in an incubator with 5% CO2. Prior to experimentation, all cells used were correctly identified by STR profiling, and tested negative for mycoplasma through routine screenings.
IC50 values of the compounds of the present disclosure (including the compounds in Table 4 and compounds of examples 1-72) were measured using the Meilun Cell Counting Kit-S kit from Dalian Meilun Biotech Co., Ltd. Assay details are as follows: tumor cells were seeded in a 96-well plate at a density listed in Table 7. After 24 h, 100 μL of the inoculated cells were treated with 0.5 μL of the compounds of the present disclosure (including the compounds in Table 4 and compounds of examples 1-72) at 10 different successively decreasing concentrations (starting at the highest concentration of 10 μM; 5-fold serial dilutions). After the cells were treated with the compounds of the present disclosure for a period of time (the treatment times listed in Table 7), the cell viability detection reagent was added to the culture medium for cell viability assessment according to the instructions provided with the CCK-8 kit. […] The growth inhibition of the compounds of the present disclosure on cells was plotted by Prism Graphpad software, and the IC50 values of the compounds of the present disclosure were calculated therefrom.

The test system of a further experiment is PC-3. As to the kind of experiment: CCK-8 tumor cell proliferation, PC-3. The note with it: PC-3, 96 h, read-out: IC50 for inhibiting the proliferation of tumor cells, PC-3. The format is cell-based, Human. Here is the method:
as §1, §2, §3

The next experiment concerns CCRF-CEM. Description: CCK-8 tumor cell proliferation, CCRF-CEM. The note with it: 96 h, read-out: IC50 for inhibiting the proliferation of tumor cells, CCRF-CEM. The format is cell-based, Human. Here is the method: as §1, §2, §3

As to `Cc1nc(Nc2ncc(C(=O)Nc3c(C)cccc3Cl)s2)cc(N2CCN(CCO)CC2)n1` [Dasatinib, reference compound], the IC50 in the experiment with TMD8 is no more than 50 nM; with Kasumi-1, no more than 50 nM; with Daudi, 100 to 500 nM; in the experiment with SU-DHL-6, no more than 50 nM.
As for `N#Cc1ccc(OC2CCC(NC(=O)c3ccc(N4CCC(CN5CC6CCC(C5)N6c5cc6c(cc5F)C(=O)N(C5CCC(=O)NC5=O)C6=O)CC4)nn3)CC2)cc1Cl` (stereo not shown) [GT-02765, N-((1r,4r)-4-(3-chloro-4-cyanophenoxy)cyclohexyl)-6-(4-((8-(2-(2,6-dioxopiperidin-3-yl)-6-fluoro-1,3-dioxoisoindolin-5-yl)-3,8-diazabicyclo[3.2.1]octan-3-yl)methyl)piperidin-1-yl)pyridazine-3-carboxamide], the IC50 in the experiment on DU-145 was 50 to 100 nM; in the experiment on Hep3B2.1-7 it was no more than 50 nM; in the experiment with MGC80-3, no more than 50 nM; in the experiment with LNcap it was no more than 50 nM; in the experiment with WSU-DLCL2, no more than 50 nM; in the experiment on SW620, no more than 50 nM. Also, the IC50 with MM.1R is 100 to 500 nM; in the experiment on A549, no more than 50 nM; with PC-3, no more than 50 nM.
As to `N#Cc1ccc(OC2CCC(NC(=O)c3ccc(N4CCC(CN5CCN(c6cc7c(cc6F)C(=O)N(C6CCC(=O)NC6=O)C7=O)CC5)CC4)nn3)CC2)cc1Cl` (stereo not shown) [GT-03016, N-((1r,4r)-4-(3-chloro-4-cyanophenoxy)cyclohexyl)-6-(4-((4-(2-(2,6-dioxopiperidin-3-yl)-6-fluoro-1,3-dioxoisoindolin-5-yl)piperazin-1-yl-2,2,3,3,5,5,6,6-d8)methyl)piperidin-1-yl)pyridazine-3-carboxamide], the IC50 with DU-145 lay in the range of 500 to 1000 nM; in the experiment on MGC80-3, 100 to 500 nM; in the experiment on LNcap it was 500 to 1000 nM; in the experiment with WSU-DLCL2, 1000 to 5000 nM; in the experiment with SW620, 50 to 100 nM; with MM.1R it was 1000 to 5000 nM. Further, the IC50 with PC-3 lay in the range of 500 to 1000 nM.
On to `N#Cc1ccc(OC2CCC(NC(=O)c3ccc(N4C5CCC4CN(CC4CCN(c6cc7c(cc6F)C(=O)N(C6CCC(=O)NC6=O)C7=O)CC4)C5)nn3)CC2)cc1Cl` (stereo not shown) [GT-03449, N-((1r,4r)-4-(3-chloro-4-cyanophenoxy)cyclohexyl)-6-(3-((1-(2-(2,6-dioxopiperidin-3-yl)-6-fluoro-1,3-dioxoisoindolin-5-yl)piperidin-4-yl)methyl)-3,8-diazabicyclo[3.2.1]octan-8-yl)pyridazine-3-carboxamide], for which the IC50 in the experiment with DU-145 lay in the range of 500 to 1000 nM; in the experiment with Hep3B2.1-7, 50 to 100 nM; in the experiment with MGC80-3, 50 to 100 nM; with LNcap, 50 to 100 nM; in the experiment on MM.1R, 100 to 500 nM; in the experiment on CCRF-CEM, 100 to 500 nM.
With `N#Cc1ccc(OC2CCC(NC(=O)c3ccc(N4CCC(CN5CC6CC(C5)N6c5cc6c(cc5F)C(=O)N(C5CCC(=O)NC5=O)C6=O)CC4)nn3)CC2)cc1Cl` (stereo not shown) [GT-03486, N-((1r,4r)-4-(3-chloro-4-cyanophenoxy)cyclohexyl)-6-(4-((6-(2-(2,6-dioxopiperidin-3-yl)-6-fluoro-1,3-dioxoisoindolin-5-yl)-3,6-diazabicyclo[3.1.1]heptan-3-yl)methyl)piperidin-1-yl)pyridazine-3-carboxamide], the IC50 was in the range of 50 to 100 nM in the experiment on MGC80-3; 100 to 500 nM in the experiment on LNcap; 100 to 500 nM in the experiment on WSU-DLCL2; 100 to 500 nM in the experiment with MM.1R; 100 to 500 nM in the experiment on CCRF-CEM; 100 to 500 nM in the experiment with A549.
As for `Cc1nc(Nc2ncc(C(=O)Nc3c(C)cccc3Cl)s2)cc(N2CCC(CN3C4CCC3CN(c3cc5c(cc3F)C(=O)N(C3CCC(=O)NC3=O)C5=O)C4)CC2)n1` (stereo not shown) [GT-03537, N-(2-chloro-6-methylphenyl)-2-((6-(4-((3-(2-(2,6-dioxopiperidin-3-yl)-6-fluoro-1,3-dioxoisoindolin-5-yl)-3,8-diazabicyclo[3.2.1]octan-8-yl)methyl)piperidin-1-yl)-2-methylpyrimidin-4-yl)amino)thiazole-5-carboxamide], the IC50 in the experiment with TMD8 was no more than 50 nM; in the experiment with Kasumi-1, 50 to 100 nM; in the experiment with Daudi it was 100 to 500 nM; in the experiment on SU-DHL-6, no more than 50 nM.
As for `Cc1nc(Nc2ncc(C(=O)Nc3c(C)cccc3Cl)s2)cc(N2CCC(CN3C4CC3CN(c3cc5c(cc3F)C(=O)N(C3CCC(=O)NC3=O)C5=O)C4)CC2)n1` (stereo not shown) [GT-03538, N-(2-chloro-6-methylphenyl)-2-((6-(4-((3-(2-(2,6-dioxopiperidin-3-yl)-6-fluoro-1,3-dioxoisoindolin-5-yl)-3,6-diazabicyclo[3.1.1]heptan-6-yl)methyl)piperidin-1-yl)-2-methylpyrimidin-4-yl)amino)thiazole-5-carboxamide], the IC50 was no more than 50 nM in the experiment with TMD8, 100 to 500 nM in the experiment with Kasumi-1, 100 to 500 nM in the experiment with Daudi and no more than 50 nM with SU-DHL-6.
For the compound `Cc1nc(Nc2ncc(C(=O)Nc3c(C)cccc3Cl)s2)cc(N2CCC(CN3C4CC3CN(c3ccc5c(c3)C(=O)N(C3CCC(=O)NC3=O)C5=O)C4)CC2)n1` (stereo not shown) [GT-03631, N-(2-chloro-6-methylphenyl)-2-((6-(4-((3-(2-(2,6-dioxopiperidin-3-yl)-1,3-dioxoisoindolin-5-yl)-3,6-diazabicyclo[3.1.1]heptan-6-yl)methyl)piperidin-1-yl)-2-methylpyrimidin-4-yl)amino)thiazole-5-carboxamide], the values for the IC50 in the experiment with Kasumi-1, with Daudi and in the experiment on SU-DHL-6 were 100 to 500 nM, 100 to 500 nM and no more than 50 nM, respectively.
Regarding `Cc1nc(Nc2ncc(C(=O)Nc3c(C)cccc3Cl)s2)cc(N2CCC(CN3C4CCC3CN(c3ccc5c(c3)C(=O)N(C3CCC(=O)NC3=O)C5=O)C4)CC2)n1` (stereo not shown) [GT-03632, N-(2-chloro-6-methylphenyl)-2-((6-(4-((3-(2-(2,6-dioxopiperidin-3-yl)-1,3-dioxoisoindolin-5-yl)-3,8-diazabicyclo[3.2.1]octan-8-yl)methyl)piperidin-1-yl)-2-methylpyrimidin-4-yl)amino)thiazole-5-carboxamide], the IC50 in the experiment with Kasumi-1 is no more than 50 nM; in the experiment with Daudi it was 50 to 100 nM; in the experiment on SU-DHL-6 it was no more than 50 nM.

Source of the values: patent publication US20250243210A1, “CRBN E3 LIGASE LIGAND COMPOUND, PROTEIN DEGRADER DEVELOPED BASED THEREON AND THEIR APPLICATIONS” (GLUETACS THERAPEUTICS (SHANGHAI) CO., LTD., priority 2021, published 2025).
